Test results taken from publication PMC12108179, “Porcine β-Defensin 2 Expressed in Pichia pastoris Alleviates Enterotoxigenic Escherichia coli-Induced Intestinal Injury and Inflammatory Response in Mice” (Animals : an Open Access Journal from MDPI, 2025).
Where no end group is shown, it is not given here.

Key:
E. coli K88 = assay: ETEC7-infected mouse model: E. coli loads in stool and colon; format: in vivo; settings: ETEC7-infected ICR mice, COL group, 9000 U orally for 7 days, p < 0.05, n = 6/group
Description: The animal experiment was approved by the Animal Ethics and Welfare Committee of Huazhong Agricultural University, Wuhan, China (HZAUMO-2023-0264). The animal model was established as in our previous experiment. Female ICR mice (3–4 weeks old) were obtained from the Laboratory Animals Center of Huazhong Agricultural University. After 5 days of adaptation, 36 mice were randomly assigned into 6 groups (n = 6/group), namely, a control group (only phosphate-buffered saline (PBS) treatment), the ETEC7 group (ETEC7 and PBS treatment), the COL group (ETEC7 and 9000 U colistin sulfate treatment), the HP group (ETEC7 and 16 AU rPBD2 treatment), the MP group (ETEC7 and 8 AU rPBD2 treatment), and the LP group (ETEC7 and 4 AU rPBD2 treatment). […]
(§1) Body weight change was calculated as ((final body weight − initial body weight)/initial body weight) × 100%. Diarrhea scores were recorded at 1, 3, 5, and 7 days post infection (dpi) based on the following scoring criteria: (1) normal stool: 0 point; (2) color change/consistency: 1 point; (3) presence of wet tail or mucosa: 2 points; (4) watery stool: 3 points. […] Intestine water content (intestine/carcass ratio) was measured as described previously. The cecum index was calculated as cecum weight (g)/body weight (g). […]

ETEC7 [1] = assay: ETEC7-infected mouse model: ileum morphology (HE staining); format: in vivo; settings: ETEC7-infected ICR mice, 7 dpi, n = 6/group
Description: (§2) The animal experiment was approved by the Animal Ethics and Welfare Committee of Huazhong Agricultural University, Wuhan, China (HZAUMO-2023-0264). The animal model was established as in our previous experiment. Female ICR mice (3–4 weeks old) were obtained from the Laboratory Animals Center of Huazhong Agricultural University. After 5 days of adaptation, 36 mice were randomly assigned into 6 groups (n = 6/group), namely, a control group (only phosphate-buffered saline (PBS) treatment), the ETEC7 group (ETEC7 and PBS treatment), the COL group (ETEC7 and 9000 U colistin sulfate treatment), the HP group (ETEC7 and 16 AU rPBD2 treatment), the MP group (ETEC7 and 8 AU rPBD2 treatment), and the LP group (ETEC7 and 4 AU rPBD2 treatment). The mice were fed antibiotics, including kanamycin (400 mg/L), gentamicin (35 mg/L), vancomycin (45 mg/L), metronidazole (215 mg/L), and colistin (850 U/mL), in drinking water for 72 h and were then fed normal water for another 24 h. All mice were fasted for 12 h and then were orally gavaged with 200 μL 3% NaHCO3 30 min prior to the challenge with 10^9 CFU of ETEC7. The mice were orally infected with ETEC7 once a day for 3 days. […] The control and ETEC7 groups were administrated with the same volume of PBS. All mice were treated with PBS, colistin sulfate, or rPBD2 for 7 continuous days.
as §1, with “points. A score of 1 was considered diarrhea. Fresh stools and 1 cm colon were collected and suspended in sterile PBS. Ten-fold serial dilutions of stool or colon homogenate were plated on MacConkey plates containing 100 μg/mL ampicillin.” for “points.”

ETEC7 [2] = assay: ETEC7-infected mouse model: clinical symptoms (body weight, diarrhea score, intestine/carcass ratio, cecum index); format: in vivo, ICR mice; settings: 9000 U orally for 7 days, n = 6/group
Description: as §2
as §1, with “points. A score of 1 was considered diarrhea. Fresh stools and 1 cm colon were collected and suspended in sterile PBS. Ten-fold serial dilutions of stool or colon homogenate were plated on MacConkey plates containing 100 μg/mL ampicillin.” for “points.”

IL-6 = assay: ETEC7-infected mouse model: serum cytokine ELISA; format: in vivo; settings: ETEC7-infected ICR mice, 9000 U (COL group) orally for 7 days, 7 dpi, p < 0.05, n = 6/group
Description: as §2
as §1, with “points. A score of 1 was considered diarrhea. Fresh stools and 1 cm colon were collected and suspended in sterile PBS. Ten-fold serial dilutions of stool or colon homogenate were plated on MacConkey plates containing 100 μg/mL ampicillin.” for “points.”

IL-10 = assay: ETEC7-infected mouse model: serum cytokine ELISA; format: in vivo; settings: ETEC7-infected ICR mice, 9000 U orally for 7 days, 7 dpi, among the groups, p > 0.05, n = 6/group
Description: as §2
as §1, with “points. A score of 1 was considered diarrhea. Fresh stools and 1 cm colon were collected and suspended in sterile PBS. Ten-fold serial dilutions of stool or colon homogenate were plated on MacConkey plates containing 100 μg/mL ampicillin.” for “points.”

TNF-α = assay: ETEC7-infected mouse model: serum cytokine ELISA; format: in vivo; settings: ETEC7-infected ICR mice, 9000 U (COL group) orally for 7 days, 7 dpi, p < 0.05, n = 6/group
Description: as §2
as §1, with “points. A score of 1 was considered diarrhea. Fresh stools and 1 cm colon were collected and suspended in sterile PBS. Ten-fold serial dilutions of stool or colon homogenate were plated on MacConkey plates containing 100 μg/mL ampicillin.” for “points.”

[3] = in the presence of 150 mM NaCl or 2.5 mM CaCl2; cited from earlier work
Description: It has been reported that PBD2 has antibacterial activity against Gram-positive and -negative bacteria. […] When AMPs are used in the animal industry, many factors, including temperature, pH, enzymes, and salt ions, may affect their activities. […] This may allow crude rPBD2 to endure the ...

[4] = 9000 U (COL group) orally for 7 days, p < 0.05

Row | Substance | colonized numbers of E. coli K88 in the colon (E. coli K88; 7 dpi) | bacterial loads in feces (E. coli K88; vs ETEC7 group) | VH/CD (villus height/crypt depth, ileum) (ETEC7 [1]; [4]) | villus height (ileum) (ETEC7 [1]; [4]) | crypt depth (ileum) (ETEC7 [1]; 9000 U orally for 7 days, among the groups, p > 0.05) | diarrhea scores (ETEC7 [2]; ETEC7-infected ICR mice, 1, 3, 5, 7 dpi, vs ETEC7 group) | cecum index (ETEC7 [2]; ETEC7-infected ICR mice, 7 dpi, among the groups) | final body weight (ETEC7 [2]; female ICR mice, ETEC7 10^9 CFU orally once a day for 3 days, 7 dpi, among groups, p > 0.05) | serum IL-6 levels (IL-6) | serum IL-10 levels (IL-10) | serum TNF-α levels (TNF-α) | antibacterial activity in the presence of salts [3]
1 | colistin sulfate | lower than those in the ETEC7 group | significantly decreased | significantly increase | significantly increase | no significant differences | relative lower diarrhea scores but without significant differences | no significant differences | no significant differences | could decrease the levels of IL-6 | no significant differences | significantly decrease | 
2 | synthetic human β-defensin 3 (hBD-3): synthetic human β-defensin 3, literature comparison (GIINTLQKYYCRVRGGRCAVLSCLPKEEQIGKCSTRGRKCCRRKK; ends and bridges not checked; cysteine pairing not given here; UniProt P81534 23-67, looked up) |  |  |  |  |  |  |  |  |  |  |  | completely abolished
